Data set [1] addresses T1, MOR (Homo sapiens, UniProt P35372). Briefly: cell-based. The conditions noted are these: for Emax: read-out: Emax for β-arrestin recruitment. Here is the method:
The β-Arrestin recruitment assay was performed as previously described.[41] Briefly, the PathHunter β-Arrestin assay was used to monitor GPCR activation through β-arrestin recruitment. This assay also utilized EFC technology, with β-Gal as the reporter enzyme. In this system, the Enzyme Acceptor (EA) fragment was fused to β-arrestin, and the ProLink (PK) fragment was fused to the GPCR of interest. Upon GPCR activation, EA and PK complementation restored β-Gal activity, generating a chemiluminescent signal that was measured using PathHunter Detection Reagents.

For data set [2], the target named is T1, MOR. Briefly: cell-based. The conditions noted are these: for Emax: read-out: Emax for G-protein activation. Here is the method: The G-protein pathway activation was performed as previously described.[40] Briefly, the G-protein pathway activation was measured using HitHunter cAMP assays, which quantify cAMP, a secondary messenger involved in G-protein-coupled receptor (GPCR) signaling. This assay employed Enzyme Fragment Complementation (EFC) technology with β-galactosidase (β-Gal) as the reporter enzyme. Upon activation, β-Gal produces a chemiluminescent signal that is detected using a microplate reader, providing a quantitative measure of G-protein pathway activity.

On the set-up of data set [3]: method as in doi:10.3390/scipharm88020025, PMID 17435173, PMID 24712707. Particulars: water or methanol, cited from earlier work.
The subject of data set [4] is nonactivated THP-1 cells. In words: Inflammatory cytokine assay, nonactivated THP-1 cells (ELISA). The conditions noted are these: 24 h.
Data set [5] deals with LPS-activated THP-1 cells. In words: Inflammatory cytokine assay, LPS-activated THP-1 cells (ELISA). The conditions noted are these: LPS 0.1 μg/mL, 24 h, three concentrations.
Method: This assay evaluated the impact of various compounds on cytokine production in THP1 cells stimulated with LPS, as previously described with some modifications.[35] Following treatment, key cytokines were measured to enhance our understanding of the modulatory effects of these compounds on inflammation.
The cells were cultured for 24 h at 37 °C and 5% CO2. After the culture period, the cell free supernatants were harvested and stored at −80 °C until cytokine measurement.
The cytokines IL-1beta, IL-6 and TNF were measured using an ELISA Development Kit (R&D, biotechne, Wiesbaden, Germany) according to the recommendations of the manufacturer.
In data set [6] the target is T2, MOR expressed in human embryonic kidney 293 (HEK-293) cells (Homo sapiens, UniProt P35372).
T2 construct: host or cells: HEK-293
Briefly: In vitro radioligand competition binding assay against [3H]DAMGO (Eurofins). The method, then: The Ki values were determined from the measured IC50 values using the Cheng-Prusoff equation,[39] Ki = IC50/[1 + ([L]/Kd)], where [L] and Kd are the concentration and binding affinity of the radiolabeled ligand in the assay, respectively.

The mark [7] stands for this setting: compared with the reported EC50 of morphine.

Read-outs that look alike come from different tables or passages of the source.

These results are taken from article PMC11915030 (ACS Pharmacology & Translational Science, 2025).

T1 sequence (P35372 whole entry, the tested form may be a part): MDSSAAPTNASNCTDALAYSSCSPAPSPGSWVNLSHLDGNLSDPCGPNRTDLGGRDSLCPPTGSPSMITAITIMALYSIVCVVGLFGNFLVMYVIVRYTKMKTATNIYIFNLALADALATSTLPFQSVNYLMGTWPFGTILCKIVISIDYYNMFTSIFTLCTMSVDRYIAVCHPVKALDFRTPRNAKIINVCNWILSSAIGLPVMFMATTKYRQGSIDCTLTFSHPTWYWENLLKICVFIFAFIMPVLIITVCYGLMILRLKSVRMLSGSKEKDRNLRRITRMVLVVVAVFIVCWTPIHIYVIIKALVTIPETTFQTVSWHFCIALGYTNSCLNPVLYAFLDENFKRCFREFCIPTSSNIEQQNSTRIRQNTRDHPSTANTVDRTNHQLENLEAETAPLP
T2 sequence (P35372 whole entry): as the sequence (P35372 whole entry, the tested form may be a part) above

On to `COc1ccsc1CNCC[C@@]1(c2ccccn2)CCOC2(CCCC2)C1` [TRV-130, oliceridine, reference compound], for which the Emax in data set [1] was 7.9%; in data set [2], 100%.

For `Cc1c(N(C)CS(=O)(=O)O)c(=O)n(-c2ccccc2)n1C` [metamizole, metamizole sodium], the “hydrolysis to 4-methylaminoantipyrine (4-MAA)” value in data set [3] (acidic conditions) is recorded as “more rapidly”; in data set [3] (neutral pH), “slowly”. In data set [4], the “induction of pro-inflammatory cytokines (TNF, IL-1beta, IL-6)” value (shortened to “induction of pro-inflammatory cytokines”) is recorded as “did not see any induction”. Moreover, the “effect on LPS-induced TNF release” value in data set [5] is “dose-dependent and significant upregulation”.

Take `Cc1c(N(C)Cc2cc3c4c(c2O)O[C@H]2[C@@H](O)C=C[C@H]5[C@@H](C3)N(C)CC[C@@]452)c(=O)n(-c2ccccc2)n1C` [metamorphine]: the “fold difference to morphine, β-arrestin recruitment” value in data set [1] (setting [7]) was 8 fold. Besides, the Emax stood at 70% in data set [1] and 97% in data set [2]. The “fold difference to morphine, G-protein activation” value in data set [2] (setting [7]) was found to be 22 fold. The “induction of pro-inflammatory cytokines” value in data set [4] was “did not see any induction”. The “effect on LPS-induced TNF release” value in data set [5] is reported as “no significant effect”. The “fold less potent against MOR than morphine (Ki)” value in data set [6] (compared with the reported Ki of morphine) is on record as “about 8 fold”. In data set [6] (read-out: half-maximal inhibitory concentration (IC50), MOR binding), the IC50 is 7.3 nM. For the same compound, the Ki in data set [6] (read-out: inhibitory constant (Ki), MOR binding) worked out at 3 nM.

For the compound `CN1CC[C@]23c4c5ccc(O)c4O[C@H]2[C@@H](O)C=C[C@H]3[C@H]1C5` [morphine], the “induction of pro-inflammatory cytokines” value in data set [4] is “did not see any induction”. The “effect on LPS-induced TNF release” value in data set [5] is “no significant effect”.
